Assay results published in ChEMBL document CHEMBL1155609, “New cytotoxic sterol glycosides from the octocoral Carijoa (Telesto) riisei” (2000).
≈ marks a conversion by molar mass, not a printed value.

System: HCT-116
Assay: Cytotoxicity against human HCT116 cells
Assay type: functional
Conditions: read-out: ED50 (the source's name)

SMILES: CC(=O)OCC(C)CCC[C@@H](C)[C@H]1CC[C@H]2[C@@H]3C[C@@H](O)[C@@]4(O)C[C@@H](O[C@@H]5OC[C@@H](OC(C)=O)[C@@H](O)[C@@H]5O)CC[C@]4(C)[C@H]3CC[C@]12C (some centres not stated) [RIISEIN B]
- EC50: 2 µg/mL (≈ 3.06 µM)

SMILES: CC(=O)OCC(C)CCC[C@@H](C)[C@H]1CC[C@H]2[C@@H]3C[C@@H](O)[C@@]4(O)C[C@@H](O[C@@H]5OC[C@@H](O)[C@@H](OC(C)=O)[C@@H]5O)CC[C@]4(C)[C@H]3CC[C@]12C (some centres not stated) [RIISEIN A]
- EC50: 2 µg/mL (≈ 3.06 µM)
